Values joined by “and” are separate entries in the source; they are usually repeats but may differ in a detail not shown here. Equal entries are not always repeated. Toxic doses and inconclusive results are not listed. Rule as the data show it: active = T/C of 150% or more; inactive = T/C below 125%.
System: L1210 leukemia ip in BDF1 mice, survival T/C
Experiment: NCI In Vivo Anticancer Drug Screen. Data for tumor model L1210 Leukemia (intraperitoneal) in B6D2F1 (BDF1) mice
Details: endpoint: mean survival time, higher = longer survival
Summary of the method: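 Mice bearing the transplanted tumor received compound or vehicle. Survival of the treated group was divided by that of the vehicle-treated control group to give the ratio.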

[1] = dose: 100.0 mg/kg/injection, schedule: Q01DX001 (ip), vehicle: saline
[2] = dose: 200.0 mg/kg/injection, schedule: Q01DX001 (ip), vehicle: saline
[3] = dose: 400.0 mg/kg/injection, schedule: Q01DX001 (ip), vehicle: saline

Measured: T/C

CC(=O)NC/C(C)=N/Nc1ccc([N+](=O)[O-])cc1[N+](=O)[O-]
inactive: dose: 25.0 mg/kg/injection, schedule: Q01DX009 (ip), vehicle: saline with Tween-80 91 % of control | dose: 50.0 mg/kg/injection, schedule: Q01DX009 (ip), vehicle: saline with Tween-80 93 % of control | dose: 100.0 mg/kg/injection, schedule: Q01DX009 (ip), vehicle: saline with Tween-80 102 % of control | dose: 100.0 mg/kg/injection, schedule: Q04DX003 (ip), vehicle: saline with Tween-80 88 % of control

CCCc1cc(CN2CCCCC2)c(O)c(CN2CCCCC2)c1O
inactive: [1] 96 % of control | [2] 95 % of control | [3] 88 % of control

CCCCC[CH2][Sn](=[O])[CH2]CCCCC
inactive: dose: 100.0 mg/kg/injection, schedule: Q01DX001 (ip), vehicle: saline with Tween-80 105 % of control | dose: 200.0 mg/kg/injection, schedule: Q01DX001 (ip), vehicle: saline with Tween-80 100 % of control | dose: 400.0 mg/kg/injection, schedule: Q01DX001 (ip), vehicle: saline with Tween-80 103 % of control

CC(C)=CN1CCOCC1
inactive: dose: 25.0 mg/kg/injection, schedule: Q01DX009 (ip), vehicle: Klucel (hydroxypropylcellulose) (HPC) 94 % of control | dose: 50.0 mg/kg/injection, schedule: Q01DX009 (ip), vehicle: Klucel (hydroxypropylcellulose) (HPC) 92 % of control | dose: 100.0 mg/kg/injection, schedule: Q01DX009 (ip), vehicle: Klucel (hydroxypropylcellulose) (HPC) 97 % of control and 106 % of control | dose: 100.0 mg/kg/injection, schedule: Q04DX003 (ip), vehicle: Klucel (hydroxypropylcellulose) (HPC) 100 % of control | dose: 200.0 mg/kg/injection, schedule: Q04DX003 (ip), vehicle: Klucel (hydroxypropylcellulose) (HPC) 100 % of control | dose: 400.0 mg/kg/injection, schedule: Q04DX003 (ip), vehicle: Klucel (hydroxypropylcellulose) (HPC) 102 % of control

Cc1cc(/C=C/c2ccccc2)nc2ccccc12
inactive: [1] 96 % of control | [2] 100 % of control | [3] 90 % of control

From PubChem BioAssay AID248 (DTP/NCI, 2004)
